Data reported in ChEMBL document CHEMBL1126321, “Antitumor agents. 123. Synthesis and human DNA topoisomerase II inhibitory activity of 2'-chloro derivatives of etoposide and 4 beta-(arylamino)-4'-O-demethylpodophyllotoxins” (J Med Chem, 1992).

What was measured:
[1] = Concentration required for 50% reduction in KB cell number after 3-day incubation; type: functional, cell-based, Homo sapiens
[2] = system: Nucleic Acid; assay: Effect on cellular protein DNA complex formation(%) at 10 uM in comparison with etoposide; type: functional
[3] = molecular target: T1, DNA topoisomerase II (Homo sapiens) (UniProt P11388+Q02880); assay: Evaluated for the inhibition of human DNA Topoisomerase II; type: protein assay
[4] = molecular target: T1, DNA topoisomerase II (Homo sapiens); assay: Compound was evaluated for the inhibition of human DNA Topoisomerase II; type: protein assay

IC50 [1] [µM] | ID50 [3] [µM] | ID50 [4] [µM] | Structure (SMILES) | Complex formation [2] [%]
> 7.2 | > 100 |  | COc1cc([C@@H]2c3cc4c(cc3[C@@H](Nc3cccc([N+](=O)[O-])c3)[C@H]3COC(=O)[C@H]23)OCO4)c(Cl)c(OC)c1O | 0
5.7 | > 100 |  | COc1cc([C@@H]2c3cc4c(cc3[C@@H](Nc3cccc(O)c3)[C@H]3COC(=O)[C@H]23)OCO4)c(Cl)c(OC)c1O | 0
> 7.3 | > 100 |  | COc1cc([C@@H]2c3cc4c(cc3[C@@H](Nc3ccc(Cl)cc3)[C@H]3COC(=O)[C@H]23)OCO4)c(Cl)c(OC)c1O | 0
> 7 | > 100 |  | COc1cc([C@@H]2c3cc4c(cc3[C@@H](Nc3ccc5c(c3)OCCO5)[C@H]3COC(=O)[C@H]23)OCO4)c(Cl)c(OC)c1O | 0
> 7.5 | > 100 |  | COc1cc([C@@H]2c3cc4c(cc3[C@@H](Nc3ccc(F)cc3)[C@H]3COC(=O)[C@H]23)OCO4)c(Cl)c(OC)c1O | 0
> 6.8 | > 100 |  | COc1cc([C@@H]2c3cc4c(cc3[C@@H](Nc3ccc(Br)cc3)[C@H]3COC(=O)[C@H]23)OCO4)c(Cl)c(OC)c1O | 0
0.68 | 10 |  | COc1cc([C@@H]2c3cc4c(cc3[C@@H](Nc3ccc5c(c3)OCO5)[C@H]3COC(=O)[C@H]23)OCO4)cc(OC)c1O | 279
> 7.2 |  | > 100 | COc1cc([C@@H]2c3cc4c(cc3[C@@H](Nc3ccc([N+](=O)[O-])cc3)[C@H]3COC(=O)[C@H]23)OCO4)c(Cl)c(OC)c1O | 0
> 7.2 | > 100 |  | COc1cc([C@@H]2c3cc4c(cc3[C@@H](Nc3ccc5c(c3)OCO5)[C@H]3COC(=O)[C@H]23)OCO4)c(Cl)c(OC)c1O | 0

Further lines, the compound ahead of its results:

Structure (SMILES) | IC50 [1] [µM] | ID50 [3] [µM] | ID50 [4] [µM] | Complex formation [2] [%]
COc1cc([C@@H]2c3cc4c(cc3[C@@H](O)[C@H]3COC(=O)[C@H]23)OCO4)c(Cl)c(OC)c1O | > 22.3 | > 50 |  | 15.6
COc1cc([C@@H]2c3cc4c(cc3[C@@H](O[C@@H]3O[C@@H]5CO[C@@H](C)O[C@H]5[C@H](O)[C@H]3O)[C@H]3COC(=O)[C@H]23)OCO4)cc(OC)c1O [ETOPOSIDE] | 0.2 |  |  | 100
COc1cc([C@@H]2c3cc4c(cc3[C@@H](Nc3ccc(F)cc3)[C@H]3COC(=O)[C@H]23)OCO4)cc(OC)c1O | 0.24 |  |  | 213
COc1cc([C@@H]2c3cc4c(cc3[C@@H](Nc3cccc(O)c3)[C@H]3COC(=O)[C@H]23)OCO4)cc(OC)c1O | 0.45 |  |  | 290
COc1cc([C@@H]2c3cc4c(cc3[C@@H](O[C@@H]3O[C@@H]5CO[C@@H](C)O[C@H]5[C@H](O)[C@H]3O)[C@H]3COC(=O)[C@H]23)OCO4)c(Cl)c(OC)c1O | > 6.4 | > 50 |  | 6.1
COc1cc([C@@H]2c3cc4c(cc3[C@@H](Nc3ccc([N+](=O)[O-])cc3)[C@H]3COC(=O)[C@H]23)OCO4)cc(OC)c1O | 0.49 |  |  | 323
